The text below walks through data of patent US9573975B2, “Melanoma antigen peptide and uses thereof” (INSERM (INSTITUT NATIONAL DE LA SANTE ET DE LA RECHERCHE …, priority 2012, dated 2017).

Experiment [1] relates to CD4 T cells in PBMC from healthy donors. Description: PBMC from healthy donors stimulated with MELOE-1, restimulated with overlapping peptides, CD4/TNF-α staining. The format is cell-based, human. The following applies: for healthy donors in whom CD4 responses against the region were detected: seven healthy donors, TNFα production. The procedure: FIG. 1: (A) Percentages of TNF-α producing CD4 T cells among positive microcultures. Fourteen days after PBMC stimulation with MELOE-1 whole polypeptide (2-46), microcultures were re-stimulated with each indicated peptide during 5 hours. TNF-α production was then assessed by a double labeling TNF-α-CD4. Results were analyzed with a non-parametric test (Kruskal-Wallis) followed by a Dunns post-test. (B) Frequency of microcultures containing CD4 T cells specific for MELOE-1 peptides (assessed by TNF-α intracellular staining after re-stimulation with the 4 indicated peptides). 624 microcultures (from 7 healthy donors) were analyzed by a contingency table followed by a Fisher exact test.
PBMC from healthy donors were stimulated with 10 μM of MELOE-1. After 14 days, the presence of CD4 T cells specific for the different regions of MELOE-1 was assessed by restimulating cells with MELOE-12-21, MELOE-111-30, MELOE-118-37 and MELOE-126-46 peptides, followed by CD4/TNF-α double staining and flow cytometry analysis. Between brackets is indicated the mean % of TNF-α producing CD4 T cells, in positive microcultures. NA: not available.
PBMC from healthy donors or melanoma patients (2·10^5 cells/well) were cultured for 14 days with 10 μM of MELOE-1 whole antigen (46 amino acids) in RPMI medium supplemented with 8% HS, 50 IU/ml of rIL-2 (Chiron, France) and L-Glutamin, in 96-well multiplates. Micro cultures were then restimulated individually with each overlapping peptide (MELOE-12-21, MELOE-111-30, MELOE-118-37, MELOE-126-46 or MELOE-122-46 for melanoma patients) in the presence of 10 μg/mL brefeldin A for 5 hours and the percentage of CD4^+ specific T cells was assessed by TNF-α, IFN-γ or IL-4 intracellular staining A negative control without peptide was included in all experiments.
(§1) Lymphocytes were stimulated for 5 hours in the presence of brefeldin A (10 μg/mL) either with peptide alone (10 μM) in an autopresentation assay or with B-EBV or HLA-class II expressing melanoma cells pulsed 2 hours with the cognate peptide, at a ratio 1:2. In some experiments, blocking mAb against HLA-DP (clone B7.21 from Dr Charron, UMR940, Paris), HLA-DQ (clone SPVL3, Beckman Coulter) or HLA-DR (clone L243, BD Biosciences) were added at a concentration of 12.5 μg/ml. Cells were then stained with APC-conjugated anti-CD4 mAb, fixed with 4% paraformaldehyde, labeled with PE-conjugated anti-cytokine mAb and analyzed by flow cytometry.
Our purpose was to look for the existence of class II helper epitopes all along MELOE-1 sequence (SEQ ID NO: 20), in order to document the immunogenicity of the different regions of this melanoma antigen. We stimulated 2·10^7 PBMC from seven healthy donors with MELOE-1 whole antigen and tested, after a 14-day culture period the presence of CD4 T cells specific for each region of the protein. Microcultures were screened for TNFα production by CD4+ T cells, after restimulation with four MELOE-1 derived overlapping peptides (Table I), in an autopresentation assay. […] On the contrary, the central region 18-37, containing an already described DR11-restricted epitope (24-37) located just at the end of this 20-mer peptide (Rogel et al., 2011), induced specific responses in microcultures deriving from only 2/7 donors (HD9 and HD17, both expressing the DR11 element). In these two donors, we detected 6 and 7% of positive microcultures, containing between 0.6 to 3.7% of TNFα producing CD4 T cells.

Experiment [2] deals with MELOE-1 specific T cell clones. The experiment is described as follows: HLA restriction of MELOE-1 specific T cell clones (anti-HLA blocking antibodies, HLA-matched B-EBV cell lines). Format: cell-based, human. The procedure:
FIG. 3: HLA-restricting element of MELOE-1 specific T cell clones and reactivity against HLA-matched melanoma cell lines. The HLA restriction of MELOE-1 specific T cell clones was first assessed using anti-HLA blocking antibodies (upper panel). T cell clones were stimulated for 5 hours in the presence of brefeldin A (10 μg/mL) either with peptide alone (10 μM) in an autopresentation assay and in presence or not of blocking antibodies at a concentration of 12.5 μg/mL. HLA restriction was confirmed with HLA-matched B-EBV cell lines pulsed 2 hrs with the cognate peptide, at a ratio 1:2 (middle panel). Reactivity of each T cell clone against HLA-class II expressing melanoma cells was assessed, in presence or not of exogeneous peptide (lower panel). After 5 hours of stimulation, cells were then stained with APC-conjugated anti-CD4 mAb, fixed with 4% paraformaldehyde, labeled with PE-conjugated anti-TNF-α mAb and analyzed by flow cytometry.
as §1
In order to formally characterize the recognized epitopes, we derived CD4 T cell clones specific for each region of MELOE-1 by limiting dilution, from microcultures of healthy donors or melanoma patients, containing at least 0.5% of specific CD4 T cells. We succeeded to derive CD4 specific T cell clones from HD17, HD22, HD25 and Pt≠3 microcultures, which were reactive against MELOE-12-21 (HD22), MELOE-111-30 (HD17 and Pt≠3) and MELOE-126-46 (HD25). From each cloning experiment, we obtained between one and ten reactive CD4 T cell clones, that turned out to be the same clonotype after CDR3B sequencing (Table IV). A single CD4 T cell clone for each specificity was used for further experiments. The HLA-restriction was determined for each T cell clone, first by using HLA-class II blocking monoclonal antibodies (FIG. 3, upper panel), and further by testing the recognition of HLA-matched B-EBV cell lines loaded with each recognized long peptide (FIG. 3 middle panel). The two T cell clones named 9C12 and 4E2, derived from HD22 and HD25 and specific for MELOE-12-21 and MELOE-126-46 were restricted by the HLA-DQβ1*0202 and the DQβ1*0201 molecules respectively. […]

For the sequence TSREQFLPSEGAACPPWHPS [MELOE-111-30], the “mean % of TNF-α producing CD4 T cells, in positive microcultures” value is on record as “(2% ± 1.4)” in experiment [1] (donor HD24) and “(5% ± 3.4)” in experiment [1] (donor HD27). Besides, the “frequency of positive microcultures versus the three other regions of MELOE-1” value in experiment [1] (healthy donors, Fisher exact test, p<0.0001) is recorded as “significantly higher”. In experiment [1], the “healthy donors in whom CD4 responses against the region were detected” value is given as “each tested donor”. Moreover, the “HLA-restricting element of the peptide-specific T cell clone” value in experiment [2] (T cell clone 1A5) is recorded as “HLA-DRβ1*1101”; in experiment [2] (T cell clone 5F9), “HLA-DRβ1*0101”.

In turn, “SCVGYPDEATSREQFLPSEG (SCVGYPDEATSREQFLPSEC) [MELOE-12-21]” registered a positive microcultures in experiment [1] (healthy donor HD28) of 62%. In addition, the “healthy donors in whom CD4 responses against the region were detected” value in experiment [1] is reported as 6/7. The “HLA-restricting element of the peptide-specific T cell clone” value in experiment [2] (T cell clone 9C12 (from HD22)) is “HLA-DQβ1*0202”.
